Target: T1, FLT3-ITD (Homo sapiens, UniProt P36888)
T1 sequence (P36888 1-993): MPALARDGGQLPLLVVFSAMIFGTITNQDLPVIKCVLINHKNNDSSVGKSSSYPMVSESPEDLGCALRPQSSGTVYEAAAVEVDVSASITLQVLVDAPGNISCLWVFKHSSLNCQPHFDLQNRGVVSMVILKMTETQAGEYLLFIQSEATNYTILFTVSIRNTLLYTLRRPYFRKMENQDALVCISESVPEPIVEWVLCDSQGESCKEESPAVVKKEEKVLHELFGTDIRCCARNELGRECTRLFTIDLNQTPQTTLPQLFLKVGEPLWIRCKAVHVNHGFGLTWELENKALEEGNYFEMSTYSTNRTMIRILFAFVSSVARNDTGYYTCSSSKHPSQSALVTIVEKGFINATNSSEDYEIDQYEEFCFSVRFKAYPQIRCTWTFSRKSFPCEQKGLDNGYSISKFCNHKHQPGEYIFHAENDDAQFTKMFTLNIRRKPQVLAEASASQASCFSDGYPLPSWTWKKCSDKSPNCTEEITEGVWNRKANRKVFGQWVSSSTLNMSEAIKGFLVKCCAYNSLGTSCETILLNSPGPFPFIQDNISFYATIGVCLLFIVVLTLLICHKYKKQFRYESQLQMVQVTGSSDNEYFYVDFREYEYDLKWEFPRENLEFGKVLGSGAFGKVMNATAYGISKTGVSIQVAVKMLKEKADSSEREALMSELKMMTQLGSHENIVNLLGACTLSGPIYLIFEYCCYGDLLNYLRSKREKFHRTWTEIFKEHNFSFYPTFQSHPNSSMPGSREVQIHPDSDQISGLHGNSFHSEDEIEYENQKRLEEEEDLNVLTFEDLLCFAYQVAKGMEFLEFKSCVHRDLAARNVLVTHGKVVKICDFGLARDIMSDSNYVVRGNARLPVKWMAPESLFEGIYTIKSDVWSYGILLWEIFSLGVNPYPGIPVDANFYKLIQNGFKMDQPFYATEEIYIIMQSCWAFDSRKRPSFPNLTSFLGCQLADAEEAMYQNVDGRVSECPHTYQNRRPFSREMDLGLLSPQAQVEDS
Experiment: FLT3-ITD recombinant enzyme kinase assay (AlphaScreen)
Type: biochemical
Settings: 8 pt; read-out: FLT3_ITD 8 pt: IC50
Summary of the method: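 IC50 values are derived from reduced AlphaScreen signal as inhibitors block tyrosine phosphorylation of a biotinylated poly(Glu4-Tyr) peptide (30 nM) by recombinant kinase. FLT3 variants are run at 10 μM ATP, c-KIT at 100 μM.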

Row | IC50 | SMILES
1 | 0.0001 to 10 µM | O=C(Cc1ccc(-c2cnc3[nH]c(-c4ccc(N5CCOCC5)nc4)cc3c2)c(F)c1)Nc1cncc(C(F)(F)F)c1 [Compound P-0198, 2-[3-fluoro-4-[2-(6-morpholino-3-pyridyl)-1H-pyrrolo[2,3-b]pyridin-5-yl]phenyl]-N-[5-(trifluoromethyl)-3-pyridyl]acetamide]
2 | 0.0001 to 10 µM | N#Cc1cc(-c2cc3cc(-c4ccc(CC(=O)Nc5cncc(C(F)(F)F)c5)cc4F)cnc3[nH]2)ccn1 [Compound P-0199, 2-[4-[2-(2-cyano-4-pyridyl)-1H-pyrrolo[2,3-b]pyridin-5-yl]-3-fluoro-phenyl]-N-[5-(trifluoromethyl)-3-pyridyl]acetamide]

— patent publication US10160747B2, “Compounds and methods for kinase modulation, and indications therefor” (Plexxikon Inc., priority 2016, dated 2018)
